Measured values from PubChem BioAssay AID248 (DTP/NCI, 2004).
Several values for one entry are separate records, joined by “and”; a condition that tells them apart may be missing. Equal values may be shown once. Toxic doses and inconclusive results are not listed. Rule as the data show it: active = T/C of 150% or more; inactive = T/C below 125%.

Test system: L1210 leukemia ip in BDF1 mice, survival T/C
Experiment: NCI In Vivo Anticancer Drug Screen. Data for tumor model L1210 Leukemia (intraperitoneal) in B6D2F1 (BDF1) mice
Settings: endpoint: mean survival time, higher = longer survival
In short: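 Survival endpoint. Drug-treated group vs vehicle group, expressed as T divided by C. Tumor passaged by transplantation.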

[1] = dose: 100.0 mg/kg/injection, schedule: Q04DX003 (ip), vehicle: Klucel (hydroxypropylcellulose) (HPC)
[2] = dose: 200.0 mg/kg/injection, schedule: Q04DX003 (ip), vehicle: Klucel (hydroxypropylcellulose) (HPC)
[3] = dose: 400.0 mg/kg/injection, schedule: Q04DX003 (ip), vehicle: Klucel (hydroxypropylcellulose) (HPC)
[4] = dose: 100.0 mg/kg/injection, schedule: Q04DX003 (ip), vehicle: saline with Tween-80
[5] = dose: 200.0 mg/kg/injection, schedule: Q04DX003 (ip), vehicle: saline with Tween-80
[6] = dose: 400.0 mg/kg/injection, schedule: Q04DX003 (ip), vehicle: saline with Tween-80
[7] = dose: 100.0 mg/kg/injection, schedule: Q01DX001 (ip), vehicle: saline
[8] = dose: 100.0 mg/kg/injection, schedule: Q01DX009 (ip), vehicle: saline with Tween-80
[9] = dose: 200.0 mg/kg/injection, schedule: Q01DX009 (ip), vehicle: saline with Tween-80
[10] = dose: 400.0 mg/kg/injection, schedule: Q01DX009 (ip), vehicle: saline with Tween-80
[11] = dose: 25.0 mg/kg/injection, schedule: Q01DX009 (ip), vehicle: Klucel (hydroxypropylcellulose) (HPC)
[12] = dose: 100.0 mg/kg/injection, schedule: Q01DX001 (ip), vehicle: Klucel (hydroxypropylcellulose) (HPC)
[13] = dose: 200.0 mg/kg/injection, schedule: Q01DX001 (ip), vehicle: Klucel (hydroxypropylcellulose) (HPC)
[14] = dose: 400.0 mg/kg/injection, schedule: Q01DX001 (ip), vehicle: Klucel (hydroxypropylcellulose) (HPC)
[15] = dose: 100.0 mg/kg/injection, schedule: Q01DX001 (ip), vehicle: carboxymethylcellulose (CMC)
[16] = dose: 200.0 mg/kg/injection, schedule: Q01DX001 (ip), vehicle: carboxymethylcellulose (CMC)
[17] = dose: 100.0 mg/kg/injection, schedule: Q04DX002 (ip), vehicle: saline
[18] = dose: 200.0 mg/kg/injection, schedule: Q04DX002 (ip), vehicle: saline
[19] = dose: 200.0 mg/kg/injection, schedule: Q01DX001 (ip), vehicle: saline

Measured: T/C

c1ccc(C2=NCCN=C2c2ccccc2)cc1
inactive: [1] 97 % of control | [2] 97 % of control | [3] 93 % of control

N#C/C(=C1C=C/C(=N/O)C(Br)=C/1)c1ccccc1
inactive: [4] 96 % of control | [5] 100 % of control | [6] 98 % of control

Cc1ccc(N(CCO)CCO)cc1
inactive: dose: 50.0 mg/kg/injection, schedule: Q01DX001 (ip), vehicle: saline 93 % of control | [7] 102 % of control

COC(=O)CCNc1ccccc1
inactive: [8] 108 % of control | [9] 100 % of control | [10] 102 % of control

O=C(N/N=C/c1ccco1)c1ccccc1
inactive: dose: 50.0 mg/kg/injection, schedule: Q01DX009 (ip), vehicle: saline with Tween-80 94 % of control and 103 % of control | dose: 100.0 mg/kg/injection, schedule: Q01DX001 (ip), vehicle: saline with Tween-80 106 % of control | [8] 100 % of control and 103 % of control | dose: 100.0 mg/kg/injection, schedule: Q04DX002 (ip), vehicle: saline with Tween-80 96 % of control | [4] 98 % of control | dose: 200.0 mg/kg/injection, schedule: Q01DX001 (ip), vehicle: saline with Tween-80 101 % of control | [9] 103 % of control and 87 % of control | dose: 200.0 mg/kg/injection, schedule: Q04DX002 (ip), vehicle: saline with Tween-80 97 % of control | [5] 105 % of control | dose: 400.0 mg/kg/injection, schedule: Q01DX001 (ip), vehicle: saline with Tween-80 114 % of control | dose: 400.0 mg/kg/injection, schedule: Q04DX002 (ip), vehicle: saline with Tween-80 110 % of control | [6] 103 % of control

CCN(CC)/N=N/c1nc[nH]c1C(N)=O
inactive: dose: 12.5 mg/kg/injection, schedule: Q01DX009 (ip), vehicle: water 100 % of control | [11] 117 % of control | dose: 25.0 mg/kg/injection, schedule: Q01DX009 (ip), vehicle: water 101 % of control | dose: 50.0 mg/kg/injection, schedule: Q01DX001 (ip), vehicle: water 102 % of control | dose: 50.0 mg/kg/injection, schedule: Q01DX009 (ip), vehicle: Klucel (hydroxypropylcellulose) (HPC) 111 % of control | dose: 50.0 mg/kg/injection, schedule: Q01DX009 (ip), vehicle: water 98 % of control and 104 % of control | dose: 50.0 mg/kg/injection, schedule: Q04DX003 (ip), vehicle: water 101 % of control | [12] 104 % of control | dose: 100.0 mg/kg/injection, schedule: Q01DX001 (ip), vehicle: water 103 % of control | dose: 100.0 mg/kg/injection, schedule: Q01DX009 (ip), vehicle: Klucel (hydroxypropylcellulose) (HPC) 114 % of control | dose: 100.0 mg/kg/injection, schedule: Q01DX009 (ip), vehicle: water 105 % of control and 86 % of control | [1] 102 % of control | dose: 100.0 mg/kg/injection, schedule: Q04DX003 (ip), vehicle: water 102 % of control | [13] 101 % of control | dose: 200.0 mg/kg/injection, schedule: Q01DX001 (ip), vehicle: water 100 % of control | [2] 108 % of control | dose: 200.0 mg/kg/injection, schedule: Q04DX003 (ip), vehicle: water 110 % of control | [14] 113 % of control | dose: 400.0 mg/kg/injection, schedule: Q01DX001 (ip), vehicle: water 113 % of control | [3] 119 % of control | dose: 400.0 mg/kg/injection, schedule: Q04DX003 (ip), vehicle: water 111 % of control

CC(=O)Oc1ccc([N+](=O)[O-])cc1OC(C)=O
inactive: dose: 75.0 mg/kg/injection, schedule: Q01DX001 (ip), vehicle: water 92 % of control | dose: 150.0 mg/kg/injection, schedule: Q01DX001 (ip), vehicle: water 92 % of control | dose: 300.0 mg/kg/injection, schedule: Q01DX001 (ip), vehicle: water 95 % of control

CCN(C(C)=O)c1ccc(S(=O)(=O)Cl)cc1
inactive: [4] 97 % of control | [5] 88 % of control

c1ccc2c(c1)ccc1[nH]c3ccc4ccccc4c3c12
inactive: dose: 12.5 mg/kg/injection, schedule: Q01DX009 (ip), vehicle: Klucel (hydroxypropylcellulose) (HPC) 109 % of control | [11] 93 % of control | dose: 25.0 mg/kg/injection, schedule: Q04DX003 (ip), vehicle: Klucel (hydroxypropylcellulose) (HPC) 107 % of control | dose: 50.0 mg/kg/injection, schedule: Q04DX003 (ip), vehicle: Klucel (hydroxypropylcellulose) (HPC) 86 % of control | [1] 97 % of control

Cc1cc(/C=C\c2ccc3ccccc3[n+]2C)c(O)c2ncccc12
inactive: [15] 110 % of control | [16] 93 % of control

CC(C)=CC(=O)O
inactive: [8] 95 % of control | [9] 98 % of control | [10] 104 % of control

CC1C(O)C(O)C(C(=O)O)ON1C(=O)c1ccccc1 (stereo unspecified)
inactive: [17] 100 % of control | [18] 100 % of control | dose: 400.0 mg/kg/injection, schedule: Q04DX002 (ip), vehicle: saline 110 % of control

Cn1c(=O)c2[nH]c(C3CC=CCC3)nc2n(C)c1=O (stereo unspecified)
inactive: dose: 50.0 mg/kg/injection, schedule: Q01DX001 (ip), vehicle: other 97 % of control | dose: 100.0 mg/kg/injection, schedule: Q01DX001 (ip), vehicle: other 95 % of control | dose: 400.0 mg/kg/injection, schedule: Q01DX001 (ip), vehicle: other 94 % of control

c1ccc2c(c1)ccc1nc3ccc4ccccc4c3cc12
inactive: dose: 5.0 mg/kg/injection, schedule: Q01DX001 (ip), vehicle: saline 86 % of control | dose: 20.0 mg/kg/injection, schedule: Q01DX001 (ip), vehicle: saline 97 % of control | dose: 40.0 mg/kg/injection, schedule: Q01DX001 (ip), vehicle: saline 95 % of control | dose: 80.0 mg/kg/injection, schedule: Q01DX001 (ip), vehicle: saline 97 % of control

CC(C)CC(=O)c1ccccc1
inactive: dose: 50.0 mg/kg/injection, schedule: Q04DX002 (ip), vehicle: saline 104 % of control | [17] 97 % of control | [18] 111 % of control

CC(=O)Oc1cc(C)[nH]c(=O)c1
inactive: [7] 101 % of control | [19] 105 % of control | dose: 400.0 mg/kg/injection, schedule: Q01DX001 (ip), vehicle: saline 101 % of control

COc1cc(Cl)ccc1NC(=O)Oc1ccc(NC(C)=O)cc1
inactive: dose: 100.0 mg/kg/injection, schedule: Q01DX009 (ip), vehicle: saline 110 % of control | dose: 200.0 mg/kg/injection, schedule: Q01DX009 (ip), vehicle: saline 92 % of control | dose: 400.0 mg/kg/injection, schedule: Q01DX009 (ip), vehicle: saline 103 % of control

Cc1ccc2[nH]c(O)c(N=Nc3ccccc3[N+](=O)[O-])c2c1
inactive: [7] 90 % of control | [19] 93 % of control

CC(=O)Nc1ccc(S(=O)(=O)CO)cc1
inactive: [12] 102 % of control | [13] 102 % of control | [14] 102 % of control

CCCCCc1cc(O)c2c3c(c(=O)oc2c1)CCC(=O)C3
inactive: [15] 97 % of control | [16] 100 % of control | dose: 400.0 mg/kg/injection, schedule: Q01DX001 (ip), vehicle: carboxymethylcellulose (CMC) 97 % of control
